Results as given in patent US9550811B2, “Peptide scaffold design” (BIONOR IMMUNO AS, priority 2010, dated 2017).
Where two headings read alike, the source gives them in different places. Where no end group is shown, it is not given here. [ ]: non-standard residue; d: D form. Nle = CCCC[C@H](N)C(=O)O

Legend:
HLA-A1 = assay: REVEAL binding assay; conditions: score as percentage of the signal generated by the positive control peptide
HLA-A24 = assay: REVEAL binding assay; conditions: score as percentage of the signal generated by the positive control peptide
Text: (§5) The REVEAL™ binding assay determined the ability of each candidate peptide to bind to one or more MHC class I alleles and stabilizing the MHC-peptide complex. […] Detection is based on the presence or absence of the native conformation of the MHC-peptide complex. Each peptide is given a score relative to the positive control peptide, which is a known T cell epitope.

HLA-A29 = assay: REVEAL binding assay; conditions: score as percentage of the signal generated by the positive control peptide
HLA-B8 = assay: REVEAL binding assay; conditions: score as percentage of the signal generated by the positive control peptide
Text: as §5

HLA-B14 = assay: REVEAL binding assay; conditions: score as percentage of the signal generated by the positive control peptide
HLA-B15 = assay: REVEAL binding assay; conditions: score as percentage of the signal generated by the positive control peptide
HLA-A11 = HLA-A11 (Homo sapiens, UniProt P04439, A114D/F33Y/S129P); assay: REVEAL binding assay; conditions: score as percentage of the signal generated by the positive control peptide
Experimental: (§1) Binding properties to HLA for the ninemers listed in table 6 were tested for the following HLA-classes:
(§2) HLA-A1, HLA-A2, HLA-A3, HLA-A11, HLA-A24, HLA-A29, HLA-B7, HLA-B8, HLA-B14, HLA-B15, HLA-B27, HLA-B35, HLA-B40.
(§3) The peptides were synthesized as a Prospector PEPscreen®: Custom Peptide Library. […] Quality control by MALDI-TOF Mass Spectrometry was carried out on 100% of samples.
(§4) The REVEAL™ binding assay determined the ability of each candidate peptide to bind to one or more MHC class I alleles and stabilizing the MHC-peptide complex. By comparing the binding to that of high and intermediate affinity T cell epitopes, the most likely immunogenic peptides in a protein sequence can be identified. Detection is based on the presence or absence of the native conformation of the MHC-peptide complex. Each peptide is given a score relative to the positive control peptide, which is a known T cell epitope.

HLA-A2 = HLA-A2 (Homo sapiens, UniProt P04439, D140Y/D185E/D98H/E176V/E277Q/G131W/G231S/I119V/I121R/I166T/I218V/N151K/N90K/P208A/P217A/Q86G/Q94H/R138H/R169H); assay: REVEAL binding assay; conditions: score as percentage of the signal generated by the positive control peptide
Experimental: as §1, §2, §3, §4

HLA-A3 = HLA-A3 (Homo sapiens, UniProt P04439); assay: REVEAL binding assay; conditions: score as percentage of the signal generated by the positive control peptide
Experimental: as §1, §2, §3, §4

HLA-B27 = HLA-B27 (Homo sapiens, UniProt P01889, D138H/D201E/E176V/E204Q/G107R/H137Y/K202T/N104T/N87E/Q56L/Q94K/R106L/R155S/R180L/S101D/S121N/S48T/Y140D/Y33H/Y91C); assay: REVEAL binding assay; conditions: score as percentage of the signal generated by the positive control peptide
Experimental: as §1, §2, §3, §4

HLA-B7 = HLA-B7 (Homo sapiens, UniProt P01889); assay: REVEAL binding assay; conditions: score as percentage of the signal generated by the positive control peptide
Experimental: as §1, §2, §3, §4

HLA-B35 = assay: REVEAL binding assay; conditions: score as percentage of the signal generated by the positive control peptide
HLA-B40 = assay: REVEAL binding assay; conditions: score as percentage of the signal generated by the positive control peptide
Experimental: as §1, §2
The peptides were synthesized as a Prospector PEPscreen®: Custom Peptide Library. Peptides 8-15 amino acids in length were synthesized in 0.5-2 mg quantities with high average purity. Quality control by MALDI-TOF Mass Spectrometry was carried out on 100% of samples.
as §4, with “epitope. The score of the test peptide is reported quantitatively as a percentage of the signal generated by the positive control peptide, and the peptide is indicated as having a putative pass or fail result. Assay performance is confirmed by including an intermediate control peptide that is known to bind with weaker affinity to the allele under investigation.” for “epitope.”

human PBMCs = type: cell-based; conditions: With Cytofix/Cytoperm and trypsination, BC20
DC-cells = assay: Cell penetration assay: staining for biotinylated peptides, dendritic cells gated as CD11c+; type: cell-based, human; conditions: low concentration of peptides (208 uM)
Experimental: A set of peptides were biotinylated on N-terminal, and different combinations of aminoacids, with respect to length and type, were added to the sequence box X^1, X^3 and X^4 in the peptides as illustrated by the diagram below. The peptides were tested on cells grown from one individual blood donor.
96-well U-bottom polystyrene plates (NUNC, cat no: 163320) were used for staining of human PBMCs. Briefly, 8 ul of N- or C-terminally biotinylated peptides according to table 1 or table 2 (i.e. 5 mM, 2.5 mM & 1.25 mM tested for each peptide) were incubated at 37° C. for 2 h with 40 ul of PBMC (12.5×10^6 cells/ml) from blood donors. Cells were then washed 3× with 150 ul of Cellwash (BD, cat no: 349524), followed by resuspension of each cell pellet with 100 ul of Trypsin-EDTA (Sigma, cat no: T4424), then incubated at 37° C. for 5 min. Trypsinated cells were then washed 3× with 150 ul of Cellwash (BD, cat no: 349524), followed by resuspension with BD Cytofix/Cytoperm™ plus (BD, cat no: 554715), then incubated at 4° C. for 20 min according to manufacturer. Cells were then washed 2× with 150 ul PermWash (BD, cat no: 554715). Cells were then stained with Streptavidin-APC (BD, cat no: 554067) & Anti-hCD11c (eBioscience, cat no: 12-0116) according to manufacturer at 4° C. for 30 min aiming to visualize biotinylated peptides & dendritic cells, respectively. Cells were then washed 3× with 150 ul PermWash, followed by resuspension in staining buffer (BD, cat no: 554656) before flow cytometry. Dendritic cells were gated as CD11c+ events outside lymphocyte region (i.e. higher FSC & SSC signals than lymphocytes). 200 000 total cells were acquired on a FACSCanto II flow cytometer with HTS loader, and histograms for both total cells & dendritic cells with respect to peptide-fluorescence (i.e. GeoMean) were prepared.
As shown in table 4 the peptides according to the invention had the ability to allocate through the cell membrane.

Chain of HLA-A3 (P04439 25-299): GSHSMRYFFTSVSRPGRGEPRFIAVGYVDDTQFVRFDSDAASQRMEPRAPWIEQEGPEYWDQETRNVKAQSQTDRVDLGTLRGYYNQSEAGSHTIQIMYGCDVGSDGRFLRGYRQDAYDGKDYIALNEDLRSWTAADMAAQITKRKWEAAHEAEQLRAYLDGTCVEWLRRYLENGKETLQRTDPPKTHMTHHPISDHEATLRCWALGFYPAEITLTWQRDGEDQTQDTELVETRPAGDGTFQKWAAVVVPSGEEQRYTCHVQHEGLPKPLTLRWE
Chain of HLA-A3 (P61769 21-119, further chain): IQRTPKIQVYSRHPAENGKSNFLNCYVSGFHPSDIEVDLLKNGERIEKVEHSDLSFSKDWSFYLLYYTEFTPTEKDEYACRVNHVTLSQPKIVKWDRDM
Chain of HLA-B7 (P61769 21-119): as the sequence (P61769 21-119, further chain) above
Chain of HLA-B7 (P01889 25-299): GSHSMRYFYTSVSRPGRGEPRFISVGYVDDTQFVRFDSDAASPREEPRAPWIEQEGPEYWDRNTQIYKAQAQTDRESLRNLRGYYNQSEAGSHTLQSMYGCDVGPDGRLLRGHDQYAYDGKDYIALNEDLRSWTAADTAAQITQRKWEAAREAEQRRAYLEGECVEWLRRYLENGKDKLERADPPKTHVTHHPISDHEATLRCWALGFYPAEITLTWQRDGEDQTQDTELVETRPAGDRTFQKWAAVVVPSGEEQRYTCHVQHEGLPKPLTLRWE

| Substance | Geomean value (peptide-fluorescence) (human PBMCs; concentration 104 μM) | Geomean value (peptide-fluorescence) (human PBMCs; concentration 208 μM) | Geomean value (peptide-fluorescence) (human PBMCs; concentration 417 μM) | Geomean value (peptide-fluorescence) (human PBMCs; concentration 833 μM) | Results on DC-cells (geomean peptide-fluorescence) (DC-cells; BC 16) | Results on DC-cells (geomean peptide-fluorescence) (DC-cells; BC43) | further results |
| --- | --- | --- | --- | --- | --- | --- | --- |
| ADLMGYIPL | – | – | – | – | – | – | REVEAL binding score, HLA-type A1 (HLA-A1): 31.05%; REVEAL binding score, HLA-type A24 (HLA-A24): 0.61%; REVEAL binding score, HLA-type A29 (HLA-A29): 14.51%; REVEAL binding score, HLA-type B8 (HLA-B8): 11.40%; REVEAL binding score, HLA-type B14 (HLA-B14): 0.13%; REVEAL binding score, HLA-type B15 (HLA-B15): 8.30%; REVEAL binding score, HLA-type A11 (HLA-A11): 3.35%; REVEAL binding score, HLA-type A2 (HLA-A2): 8.06%; REVEAL binding score, HLA-type A3 (HLA-A3): 1.93%; REVEAL binding score, HLA-type B27 (HLA-B27): 1.01%; REVEAL binding score, HLA-type B7 (HLA-B7): 0.73%; REVEAL binding score, HLA-type B35 (HLA-B35): 2.08%; REVEAL binding score, HLA-type B40 (HLA-B40): 26.33% |
| AEL[Nle]GYIPL | – | – | – | – | – | – | REVEAL binding score, HLA-type A1 (HLA-A1): 16.63%; REVEAL binding score, HLA-type A24 (HLA-A24): 0.37%; REVEAL binding score, HLA-type A29 (HLA-A29): 20.78%; REVEAL binding score, HLA-type B8 (HLA-B8): 14.74%; REVEAL binding score, HLA-type B14 (HLA-B14): 0.12%; REVEAL binding score, HLA-type B15 (HLA-B15): 10.20%; REVEAL binding score, HLA-type A11 (HLA-A11): 3.61%; REVEAL binding score, HLA-type A2 (HLA-A2): 7.49%; REVEAL binding score, HLA-type A3 (HLA-A3): 3.05%; REVEAL binding score, HLA-type B27 (HLA-B27): 0.77%; REVEAL binding score, HLA-type B7 (HLA-B7): 1.11%; REVEAL binding score, HLA-type B35 (HLA-B35): 1.91%; REVEAL binding score, HLA-type B40 (HLA-B40): 72.73% |
| GPRLGVRAT | – | – | – | – | – | – | REVEAL binding score, HLA-type A1 (HLA-A1): 13.85%; REVEAL binding score, HLA-type A24 (HLA-A24): 0.05%; REVEAL binding score, HLA-type A29 (HLA-A29): 12.66%; REVEAL binding score, HLA-type B8 (HLA-B8): 13.18%; REVEAL binding score, HLA-type B14 (HLA-B14): 0.94%; REVEAL binding score, HLA-type B15 (HLA-B15): 10.01%; REVEAL binding score, HLA-type B35 (HLA-B35): 1.83%; REVEAL binding score, HLA-type B40 (HLA-B40): 19.95% |
| RGYIPLVGAPLGRRRVARALAHGVRV [SP10] | 3709 | 7684 | 18607 | 43389 | 8627 | 9216 | – |
| RGYIPLVGAPLGRRRVARALAHGVRVR [SP4] | 2946 | 7540 | 28008 | 41491 | 10751 | 17372 | – |
| RGYIPLVGAPLGRRVARALAHGVRV [SP3] | 4308 | 10788 | 25905 | 40456 | 9480 | 10573 | – |
| RLGVRATRK | – | – | – | – | – | – | REVEAL binding score, HLA-type A1 (HLA-A1): 20.39%; REVEAL binding score, HLA-type A24 (HLA-A24): 0.28%; REVEAL binding score, HLA-type A29 (HLA-A29): 12.83%; REVEAL binding score, HLA-type B8 (HLA-B8): 10.21%; REVEAL binding score, HLA-type B14 (HLA-B14): 0.07%; REVEAL binding score, HLA-type B15 (HLA-B15): 11.74%; REVEAL binding score, HLA-type B35 (HLA-B35): 2.83%; REVEAL binding score, HLA-type B40 (HLA-B40): 23.05% |
| RRGPVVHLTLRGRRGQAGDDFS [SP20] | 445 | 1268 | 2457 | 7319 | 19051 | 3383 | – |
| RRGPVVHLTLRRRGQAGDDFS [SP18] | 1038 | 1971 | 1334 | 4869 | 5545 | 7751 | – |
| RRGPVVHLTLRRRGQAGDDFS [SP19] | 1625 | 3466 | 7201 | 17018 | 6522 | 6536 | – |
| RRGYIPLVGAPLGBGRVARALAHGVRV [SP2] | 1211 | – | 5486 | 3136 | 6677 | 6112 | – |
| RRGYIPLVGAPLGLRRVARALAHGVRV [SP17] | 1500 | 12244 | 29967 | 30248 | 67428 | – | – |
| RRGYIPLVGAPLGRRRVARALAHGVRV [SP6] | 1850 | 6514 | 22195 | 32577 | 10233 | 14468 | – |
| RRGYIPLVGAPLGRRVARALAHGVRV [SP5] | 6152 | 19065 | 46060 | 40534 | 21358 | 29146 | – |
| RRRGYIPLVGAPLGBRVARALAHGVRV [SP8] | 2917 | 9617 | 28606 | 31976 | 15379 | 17836 | – |
| SFSIELLAL | – | – | – | – | – | – | REVEAL binding score, HLA-type B40 (HLA-B40): 21.04% |
| WGYIPLVGAPLGRRVARALAHGVRV [SP12] | 4316 | 8679 | 10869 | 11089 | 59274 | 31222 | – |
| WWGYIPLVGAPLGRRVARALAHGVRV [SP13] | – | 332 | 394 | 568 | 28539 | 9129 | – |
